In patent publication US11477982B2, “2-amino-5-oxyalkyl-pyrimidine derivatives and their use for controlling undesired plant growth” (Bayer CropScience Aktiengesellschaft, priority 2017, dated 2022):

Experiments:
Type in all cases: in vivo
[1] = tested on: ABUTH: Abutilon theophrasti; test: Pre-emergence herbicidal effect; details: for Herbicidal action against ABUTH: dosage 320 g/ha
Method in brief: (§1)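 Compounds applied before emergence onto soil over sown seeds (WP or EC, 0.5% additive, 600 l/ha water); greenhouse culture about 3 weeks, then percent activity judged by eye against untreated plants.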

[2] = tested on: ALOMY: Alopecurus myosuroides; test: Pre-emergence herbicidal effect; details: for Herbicidal action against ALOMY: dosage 320 g/ha
Method in brief: as §1

[3] = tested on: AMARE: Amaranthus retroflexus; test: Pre-emergence herbicidal effect; details: for Herbicidal action against AMARE: pre-emergence, dosage 320 g/ha
Method in brief: as §1

[4] = tested on: AVEFA: Avena fatua; test: Pre-emergence herbicidal effect; details: dosage 320 g/ha
Method in brief: as §1

[5] = tested on: ECHCG: Echinochloa crus-galli; test: Pre-emergence herbicidal effect; details: for Herbicidal action against ECHCG: dosage 320 g/ha
Method in brief: as §1

[6] = tested on: HORMU: Hordeum murinum; test: Pre-emergence herbicidal effect; details: for Herbicidal action against HORMU: pre-emergence, dosage 320 g/ha
Method in brief: as §1

[7] = tested on: LOLRI: Lolium rigidum; test: Pre-emergence herbicidal effect; details: for Herbicidal action against LOLRI: dosage 320 g/ha
Method in brief: as §1

[8] = tested on: MATIN: Matricaria inodora; test: Pre-emergence herbicidal effect; details: for Herbicidal action against MATIN: pre-emergence, dosage 320 g/ha
Method in brief: as §1

[9] = tested on: PHBPU: Ipomoea purpurea; test: Pre-emergence herbicidal effect; details: for Herbicidal action against PHBPU: dosage 320 g/ha
Method in brief: as §1

[10] = tested on: POLCO: Polygonum convolvulus; test: Pre-emergence herbicidal effect; details: for Herbicidal action against POLCO: dosage 320 g/ha
Method in brief: as §1

[11] = tested on: SETVI: Setaria viridis; test: Pre-emergence herbicidal effect; details: for Herbicidal action against SETVI: dosage 320 g/ha
Method in brief: as §1

[12] = tested on: STEME: Stellaria media; test: Pre-emergence herbicidal effect; details: for Herbicidal action against STEME: pre-emergence, dosage 320 g/ha
Method in brief: as §1

[13] = tested on: VERPE: Veronica persica; test: Pre-emergence herbicidal effect; details: dosage 320 g/ha
Method in brief: as §1

[14] = tested on: VIOTR: Viola tricolor; test: Pre-emergence herbicidal effect; details: dosage 320 g/ha
Method in brief: as §1

[15] = tested on: ABUTH: Abutilon theophrasti; test: Post-emergence herbicidal effect; details: dosage 320 g/ha
Method in brief: (§2)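 Visual % activity against untreated controls, where 100% means plants died and 0% means no difference, rated about 3 weeks after treatment. Plants were sprayed at the one-leaf stage with WP or EC formulations diluted in water plus 0.5% additive, at 600 l/ha.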

[16] = tested on: AMARE: Amaranthus retroflexus; test: Post-emergence herbicidal effect; details: dosage 320 g/ha
Method in brief: as §2

[17] = tested on: ECHCG: Echinochloa crus-galli; test: Post-emergence herbicidal effect; details: dosage 320 g/ha
Method in brief: as §2

[18] = tested on: SETVI: Setaria viridis; test: Post-emergence herbicidal effect; details: dosage 320 g/ha
Method in brief: as §2

[19] = tested on: STEME: Stellaria media; test: Post-emergence herbicidal effect; details: dosage 320 g/ha
Method in brief: as §2

[20] = tested on: VERPE: Veronica persica; test: Post-emergence herbicidal effect; details: dosage 320 g/ha
Method in brief: as §2

[21] = tested on: VIOTR: Viola tricolor; test: Post-emergence herbicidal effect; details: dosage 320 g/ha
Method in brief: as §2

[22] = Table 4a, dosage 20 g of a.i./ha
[23] = Table 4a, pre-emergence, dosage 20 g of a.i./ha
[24] = Table 4b, pre-emergence as titled, dosage 80 g of a.i./ha

Row | Compound | Herbicidal action against ABUTH [1] | Herbicidal action against ALOMY ([2]; pre-emergence) | Herbicidal action against AMARE [3] | Herbicidal action against AVEFA [4] | Herbicidal action against ECHCG ([5]; pre-emergence) | Herbicidal action against HORMU [6] | Herbicidal action against LOLRI [7] | Herbicidal action against MATIN [8] | Herbicidal action against PHBPU [9] | Herbicidal action against POLCO [10] | Herbicidal action against SETVI ([11]; pre-emergence) | Herbicidal action against STEME [12] | Herbicidal action against VERPE [13] | Herbicidal action against VIOTR [14] | Herbicidal action against ABUTH [15] | Herbicidal action against AMARE [16] | Herbicidal action against ECHCG [17] | Herbicidal action against SETVI [18] | Herbicidal action against STEME [19] | Herbicidal action against VERPE [20] | also measured
1 | COC(C)(C)c1cnc(N[C@H]2c3cc(C)ccc3C[C@@H]2C)nc1 [Example 1.24] | 100% | 100% | 100% | 100% | 100% | 100% | 100% | 100% | 90% | 100% | 100% | 100% | 100% | 100% | 90% | 90% | 100% | 90% | 100% | 90% | Herbicidal action against VIOTR [21]: 90%
2 | C=C(C)COC(C)(C)c1cnc(N[C@H]2c3cc(C)ccc3C[C@@H]2C)nc1 [Example 1.63] | 100% | 100% | 100% | 90% | 100% | 90% | 100% | 100% | 100% | 100% | 100% | 100% | 100% | 100% | 90% | 100% | 100% | 100% | 90% | 90% | Herbicidal action against VIOTR [21]: 90%
3 | Cc1ccc2c(c1)[C@H](Nc1ncc(C(C)(C)O)c(C)n1)CC2 [Example 1.12] | 100% | 100% | 100% | 100% | 100% | 100% | 100% | 100% | 100% | 100% | 100% | 100% | 100% | 100% | 90% | 90% | 100% | 100% | 100% | 90% | Herbicidal action against VIOTR [21]: 80%
4 | CCC(O)(CC)c1cnc(N[C@H]2c3cc(C)ccc3C[C@@H]2C)nc1 [Example 1.10] | 100% | 100% | 100% | 100% | 100% | 100% | 100% | 100% | 80% | 100% | 100% | 100% | 100% | 100% | 90% | 90% | 100% | 80% | 100% | 90% | Herbicidal action against VIOTR [21]: 90%
5 | Cc1ccc2c(c1)C(Nc1ncc(C(C)(C)O)c(C)n1)CCC2 (racemic) [Example 1.52] | 100% | 100% | 100% | 100% | 100% | 100% | 100% | 100% | 100% | 100% | 100% | 100% | 100% | 100% | 90% | 90% | 100% | 80% | 100% | 90% | Herbicidal efficacy against ABUTH [1, 22]: 100; Herbicidal efficacy against ALOMY [2, 23]: 90; Herbicidal efficacy against ALOMY [2, 24]: 90; Herbicidal efficacy against AMARE [3, 24]: 80; Herbicidal efficacy against ECHCG [5, 23]: 100; Herbicidal efficacy against ECHCG [5, 24]: 70; Herbicidal efficacy against HORMU [6, 24]: 90; Herbicidal efficacy against LOLRI [7, 22]: 60; Herbicidal efficacy against MATIN [8, 24]: 70; Herbicidal efficacy against PHBPU [9, 22]: 100; Herbicidal efficacy against POLCO [10, 22]: 100; Herbicidal efficacy against SETVI [11, 23]: 100; Herbicidal efficacy against SETVI [11, 24]: 80; Herbicidal efficacy against STEME [12, 24]: 90; Herbicidal action against VIOTR [21]: 90%
6 | Cc1nc(N[C@@H]2CCc3ccccc32)ncc1C(C)(C)O [Example 1.54] | 100% | 100% | 100% | 80% | 100% | 100% | 100% | 100% | 100% | 100% | 100% | 100% | 100% | 100% | 80% | 90% | 100% | 80% | 90% | 90% | Herbicidal action against VIOTR [21]: 90%
7 | Cc1ccc2c(c1)C(Nc1ncc(C(C)(C)O)cn1)CCC2 (racemic) [Example 1.43] | 100% | 100% | 100% | 100% | 100% | 100% | 100% | 100% | 100% | 100% | 100% | 100% | 100% | 100% | 90% | 90% | 100% | 90% | 100% | 90% | Herbicidal action against VIOTR [21]: 90%
